According to patent publication US7196083B2, “Heteropolycyclic inhibitors of protein kinases” (priority 2000, dated 2007):
pIC50: −log10 of the molar value. Values after ≈ are worked out from the molar mass of the structure shown. Where two headings read alike, the source gives them in different places.

What was measured:
[1] = target: T1, PKB gamma (Homo sapiens, UniProt Q9Y243); test: Kinase assay in U87 cells using anti PKB gamma antibody; assay type: cell-based; conditions: U-87 MG, 1 h, after 60 min, read-out: PKB gamma isoform activity, reduction of activity to
T1 construct: endogenous in cells; host or cells: U87 cells
T1 sequence (Q9Y243 whole entry, canonical isoform): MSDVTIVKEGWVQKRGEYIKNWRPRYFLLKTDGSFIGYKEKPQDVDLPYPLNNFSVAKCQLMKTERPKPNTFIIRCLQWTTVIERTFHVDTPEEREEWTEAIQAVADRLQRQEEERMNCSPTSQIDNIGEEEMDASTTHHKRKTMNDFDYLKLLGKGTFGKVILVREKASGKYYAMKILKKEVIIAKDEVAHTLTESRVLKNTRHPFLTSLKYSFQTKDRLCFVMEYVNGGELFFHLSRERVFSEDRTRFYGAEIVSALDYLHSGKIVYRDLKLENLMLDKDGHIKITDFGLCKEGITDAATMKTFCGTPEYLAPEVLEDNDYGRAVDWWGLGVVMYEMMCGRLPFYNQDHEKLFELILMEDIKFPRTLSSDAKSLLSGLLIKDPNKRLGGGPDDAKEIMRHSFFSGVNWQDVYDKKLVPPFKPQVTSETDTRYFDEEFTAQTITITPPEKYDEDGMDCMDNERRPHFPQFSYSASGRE
Method: In preparation for this assay, each cell line was seeded at a density of 3 times 1,000,000 cells per plate onto 150 mm culture dishes and allowed to establish o/n at 37 deg C. A confluency of 50–60% was obtained to ensure maximal drug penetration into each cell. Once the cells were adherent to the culture plates, there were treated with PKB inhibitor KP-23172 for a final conc. of 5 uM. Each culture plate was lysed on ice at specific time intervals using 1% NP-40 lysis buffer containing various protease inhibitors; 10 ug/uL aprotinin, 10 ug/ul leupeptin, 1 ug/ul pepstatin, 1 M beta-glycerophosphate and 100 mM PMSF. The resulting lysates were centrifuged at 15K×g at 4 deg C. for 5 min and then assayed for its protein conc. using Bradford's Reagent and absorbance measurements at 595 nm. Equal amounts of protein were transferred to a new centrifuge tube and treated with anti-PKB-PH antibody (Kinetek #XXP-021), anti-PKBalpha antibody (Signal Transduction #67220), or anti-PKB gamma antibody (UBI 306-607) and incubated end over end at 4 deg C. […] All vials were counted for one minute in the scintillation counter.
A kinase assay in cells was also performed using anti PKB alpha and gamma antibodies in order to determine any inhibition of the isoforms by KP-23172. U87 cells were treated with 5 uM compound, lysed, and the resulting supernatant was analyzed for any changed in PKB activity. […]

[2] = physchem
Description: Solubility of KP-23172 was studied in various percent solutions of hydroxypropyl-B-cyclodextrin in water.

[3] = target: PKB, full-length recombinant bovine protein, alpha form (Bos taurus, UniProt Q01314); test: PKB inhibition in vitro enzyme assay (radioactive phosphate incorporation, scintillation counting); assay type: biochemical; conditions: PKB in vitro enzyme assay, 15 min at room temperature
Sequence of PKB, full-length recombinant bovine protein, alpha form (Q01314 whole entry): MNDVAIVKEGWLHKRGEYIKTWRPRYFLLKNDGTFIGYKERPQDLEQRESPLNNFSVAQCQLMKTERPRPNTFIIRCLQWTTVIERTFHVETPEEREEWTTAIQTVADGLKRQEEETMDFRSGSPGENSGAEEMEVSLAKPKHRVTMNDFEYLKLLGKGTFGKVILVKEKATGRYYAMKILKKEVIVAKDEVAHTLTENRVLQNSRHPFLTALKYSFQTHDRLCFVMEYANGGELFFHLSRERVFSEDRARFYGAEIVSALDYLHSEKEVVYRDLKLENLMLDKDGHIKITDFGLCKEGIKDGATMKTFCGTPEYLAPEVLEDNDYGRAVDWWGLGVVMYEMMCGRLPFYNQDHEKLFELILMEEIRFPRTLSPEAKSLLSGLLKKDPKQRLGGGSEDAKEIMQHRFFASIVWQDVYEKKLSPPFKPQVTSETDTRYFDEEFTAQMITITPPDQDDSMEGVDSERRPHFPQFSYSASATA

[4] = tested on: HT-29 human colon carcinoma; test: [3H] thymidine uptake cell proliferation assay, HT29; assay type: cell-based; conditions: read-out: Cell Proliferation Effects (IC50 (nM))
[5] = tested on: human breast carcinoma MDA-MB-435 cell line; test: [3H] thymidine uptake cell proliferation assay, MDA435; assay type: cell-based; conditions: read-out: Cell Proliferation Effects (IC50 (nM))
Method: The human breast carcinoma MDA-MB-435 cell line was obtained from MD Anderson Cancer Center, and cultured in alpha-MEM media supplemented with 10% Fetal Bovine Serum. Cells were maintained in T150 tissue culture flasks, and grown at 37° C. in a humidified 5% CO2 incubator. All cells were passaged regularly using 0.25% Trypsin-EDTA in order to maintain cells at exponential growth for various experiments. LS 180 cells were passaged without trypsin and were physically scraped off the culture flasks. In vitro [^3H] thymidine uptake assay. Proliferation can be measured by quantifying the amount of [^3H] thymidine uptake into cells using a β-counter, and therefore is a well-established diagnostic tool to measure DNA synthesis within the cells. […] The cells were allowed to adhere to the plates via incubation at 37° C. in 5% CO2 for 12–14 hours. […] Then, 10 μL of the compound was added to the pre-existing 90 μL per well, and incubated further at 37° C. in 5% CO2 for 20 hours. To measure thymidine incorporation, cells were fixed onto the culture wells by slowly adding ¼^th volume of cold 50% TCA into each well (25 μL to each well) and incubated for 1–2 hours at 4° C. […] Then, 100 μL of scintillation fluid was added to each well and the activity counted using a Wallac Microbeta Counter.

[6] = tested on: U-87 (human glioma); test: [3H] thymidine uptake cell proliferation assay, U87; assay type: cell-based
Method: Compounds were added to culture at mid-logarithmic growth and incubated for 20 hours. (N=8 for the values+standard errors). […] Cell lines A-549 (human lung carcinoma), B16-F1 (murine melanoma), B16-F10 (murine melanoma), DU-145 (human […] carcinoma), LS-180 (human colon carcinoma), PC3 (human prostate carcinoma), SKOV-3 (human ovarian carcinoma), U-87 (human glioma), and NIH-3T3 (murine embryonic fibroblasts) were all cultured in DMEM supplemented with 10% fetal bovine serum. M3 murine melanoma cells were cultured in DMEM/F12 1:1, and HT-29 human colon carcinoma and LL2 Lewis Lung […] lung carcinoma were cultured in RPMI1640. All the foregoing cell lines were obtained from ATCC. All cells were passaged regularly using 0.25% Trypsin-EDTA in order to maintain cells at exponential growth for various experiments. LS 180 cells were passaged without trypsin and were physically scraped off the culture flasks. In vitro [^3H] thymidine uptake assay. Proliferation can be measured by quantifying the amount of [^3H] thymidine uptake into cells using a β-counter, and therefore is a well-established diagnostic tool to measure DNA synthesis within the cells. […] The cells were allowed to adhere to the plates via incubation at 37° C. in 5% CO2 for 12–14 hours. […] Then, 10 μL of the compound was added to the pre-existing 90 μL per well, and incubated further at 37° C. in 5% CO2 for 20 hours. To measure thymidine incorporation, cells were fixed onto the culture wells by slowly adding ¼^th volume of cold 50% TCA into each well (25 μL to each well) and incubated for 1–2 hours at 4° C. Wells were washed 5 times with tap water to remove any free [^3H] thymidine in the media, and air-dried completely at room temperature. Then, 100 μL of scintillation fluid was added to each well and the activity counted using a Wallac Microbeta Counter.

[7] = tested on: A-549 (human lung carcinoma); test: [3H] thymidine uptake cell proliferation assay, A549; assay type: cell-based
[8] = tested on: SKOV-3 (human ovarian carcinoma); test: [3H] thymidine uptake cell proliferation assay, SKOV3; assay type: cell-based; conditions: SK-OV-3, read-out: Cell Proliferation Effects (IC50 (nM))
[9] = tested on: B16-F1 (murine melanoma); test: [3H] thymidine uptake cell proliferation assay, B16F1; assay type: cell-based; conditions: Mus musculus, read-out: Cell Proliferation Effects (IC50 (nM))
[10] = tested on: PC3 (human prostate carcinoma); test: [3H] thymidine uptake cell proliferation assay, PC3; assay type: cell-based; conditions: PC-3, read-out: Cell Proliferation Effects (IC50 (nM))

Structure (SMILES): O=C1c2ccccc2-c2nc3nnnn3nc21 [KP-23172]
- activity at 5 µM [1]: 18.3%
- 1:1 binding constant for the cyclodextrin inclusion complex [2]: 474
- solubility ([2]; aqueous with cosolvent or surfactant or cyclodextrin): 728 µg/mL (≈ 3250 µM)
- solubility ([2]; water): 77 µg/mL (≈ 343 µM)
- pIC50 [3]: 4.82
- IC50 [4]: 200 nM
- IC50 [5]: 60 nM
- IC50 ([6]; U-87 MG, U87, read-out: Cell Proliferation Effects (IC50 (nM))): 50 nM
- pIC50 ([6]; added at mid-logarithmic growth, incubated 20 hours, N=8, read-out: U87 proliferation (thymidine incorporation) IC50, FIG. 1): 7.30
- pIC50 ([7]; A459 cells, read-out: Cell Proliferation in A459 IC50 in nm): 7.10
- IC50 ([7]; A549, read-out: Cell Proliferation Effects (IC50 (nM))): 80 nM
- IC50 [8]: 200 nM
- IC50 [9]: 60 nM
- IC50 [10]: 250 nM
